Experimental findings from PubChem BioAssay AID192 (DTP/NCI, 2004) are described below.

Molecules are shown by their SMILES. “And” between values parts separate entries of the source, which are not always exact repeats. Equal values may be shown once. Toxic doses and inconclusive results are not listed.

In the test the test system is BDF1 mice, B16 melanoma ip, median survival T/C. Kind of test: NCI In Vivo Anticancer Drug Screen. Data for tumor model B16 Melanoma (intraperitoneal) in B6D2F1 (BDF1) mice. As to conditions: endpoint: median survival time, higher = longer survival. The method, boiled down: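 Vehicle-treated animals serve as the reference (C); treated animals (T) are scored for survival or tumor size after tumor transplantation.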

[1] abbreviates: dose: 12.5 mg/kg/injection, schedule: Q01DX009 (ip), vehicle: saline with Tween-80.
[2] abbreviates: dose: 20.0 mg/kg/injection, schedule: Q01DX009 (ip), vehicle: saline with Tween-80.
Where [3] appears, read: dose: 40.0 mg/kg/injection, schedule: Q01DX009 (ip), vehicle: saline with Tween-80.
Setting [4] is: dose: 100.0 mg/kg/injection, schedule: Q01DX009 (ip), vehicle: saline with Tween-80.
Where [5] appears, read: dose: 200.0 mg/kg/injection, schedule: Q01DX009 (ip), vehicle: saline with Tween-80.
[6] abbreviates: dose: 400.0 mg/kg/injection, schedule: Q01DX009 (ip), vehicle: saline with Tween-80.
Where [7] appears, read: dose: 25.0 mg/kg/injection, schedule: Q01DX009 (ip), vehicle: saline with Tween-80.
Setting [8] is: dose: 50.0 mg/kg/injection, schedule: Q01DX009 (ip), vehicle: saline with Tween-80.
The mark [9] stands for this setting: dose: 6.25 mg/kg/injection, schedule: Q01DX009 (ip), vehicle: saline with Tween-80.

Consider `CC(CCc1ccccc1)NN` (configuration not stated), for which the T/C was 122 % of control (dose: 3.12 mg/kg/injection, schedule: Q01DX009 (ip), vehicle: saline); 112 % of control and 116 % of control (dose: 6.25 mg/kg/injection, schedule: Q01DX009 (ip), vehicle: saline); 113 % of control (dose: 12.5 mg/kg/injection, schedule: Q01DX009 (ip), vehicle: saline); 103 % of control and 112 % of control (dose: 25.0 mg/kg/injection, schedule: Q01DX009 (ip), vehicle: saline).
For `CN(C)c1nc(N(C)C)nc(N(C)C)n1`, the T/C was 108 % of control (dose: 10.0 mg/kg/injection, schedule: Q01DX009 (ip), vehicle: Klucel (hydroxypropylcellulose) (HPC)); 99 % of control and 106 % of control and 107 % of control under setting [1]; 94 % of control (dose: 20.0 mg/kg/injection, schedule: Q01DX009 (ip), vehicle: Klucel (hydroxypropylcellulose) (HPC)); 88 % of control and 99 % of control under setting [2]; 103 % of control and 107 % of control (dose: 20.0 mg/kg/injection, schedule: Q02DX009 (ip), vehicle: saline with Tween-80); 97 % of control (dose: 25.0 mg/kg/injection, schedule: Q02DX009 (ip), vehicle: Klucel (hydroxypropylcellulose) (HPC)). The T/C (dose: 40.0 mg/kg/injection, schedule: Q01DX009 (ip), vehicle: Klucel (hydroxypropylcellulose) (HPC)) was 100 % of control; the T/C under setting [3] was 93 % of control and 97 % of control; the T/C (dose: 40.0 mg/kg/injection, schedule: Q02DX009 (ip), vehicle: saline with Tween-80) is 103 % of control and 112 % of control; the T/C (dose: 50.0 mg/kg/injection, schedule: Q02DX009 (ip), vehicle: Klucel (hydroxypropylcellulose) (HPC)) is 96 % of control; the T/C (dose: 80.0 mg/kg/injection, schedule: Q01DX009 (ip), vehicle: Klucel (hydroxypropylcellulose) (HPC)) is 100 % of control; the T/C (dose: 80.0 mg/kg/injection, schedule: Q01DX009 (ip), vehicle: saline with Tween-80) was 100 % of control and 102 % of control. In addition, the T/C (dose: 80.0 mg/kg/injection, schedule: Q02DX009 (ip), vehicle: saline with Tween-80) was 104 % of control and 109 % of control; the T/C (dose: 100.0 mg/kg/injection, schedule: Q02DX009 (ip), vehicle: Klucel (hydroxypropylcellulose) (HPC)) was 101 % of control; the T/C (dose: 160.0 mg/kg/injection, schedule: Q01DX009 (ip), vehicle: Klucel (hydroxypropylcellulose) (HPC)) is 91 % of control; the T/C (dose: 160.0 mg/kg/injection, schedule: Q01DX009 (ip), vehicle: saline with Tween-80) is 111 % of control; the T/C (dose: 160.0 mg/kg/injection, schedule: Q02DX009 (ip), vehicle: saline with Tween-80) is 107 % of control and 115 % of control; the T/C (dose: 200.0 mg/kg/injection, schedule: Q02DX009 (ip), vehicle: Klucel (hydroxypropylcellulose) (HPC)) was 124 % of control.
Turning to `CN(C(N)=O)C1CCCC1`, the T/C by setting is: under setting [4], 114 % of control; under setting [5], 100 % of control; under setting [6], 93 % of control.
On to `CC(C)C(Br)C(=O)NC(Cc1ccccc1)C(=O)O` (configuration not stated), for which the T/C runs as follows: under setting [4], 104 % of control; under setting [5], 95 % of control.
In the case of `COc1c2occc2cc2ccc(=O)oc12`, the T/C was 104 % of control (dose: 8.0 mg/kg/injection, schedule: Q01DX009 (ip), vehicle: saline with Tween-80); 115 % of control (dose: 16.0 mg/kg/injection, schedule: Q01DX009 (ip), vehicle: saline with Tween-80); 103 % of control under setting [7]; 95 % of control (dose: 32.0 mg/kg/injection, schedule: Q01DX009 (ip), vehicle: saline with Tween-80); 114 % of control (dose: 64.0 mg/kg/injection, schedule: Q01DX009 (ip), vehicle: saline with Tween-80); 95 % of control under setting [4]. The T/C (dose: 128.0 mg/kg/injection, schedule: Q01DX009 (ip), vehicle: saline with Tween-80) was 93 % of control.
For the compound `CC(=O)OCC1OC(n2ncc(=O)[nH]c2=O)C(OC(C)=O)C1OC(C)=O` (configuration not stated), the T/C under setting [8] was 106 % of control; the T/C under setting [4] is 91 % of control; the T/C under setting [5] was 95 % of control; the T/C under setting [6] was 102 % of control; the T/C (dose: 800.0 mg/kg/injection, schedule: Q01DX009 (ip), vehicle: saline with Tween-80) was 100 % of control.
On to `CCCCCCCCCCCCCCCCN(C)S(=O)(=O)c1ccc2sc(SC)[n+](C)c2c1` (tested in a mixture with another compound), for which the T/C reads like this: (dose: 12.5 mg/kg/injection, schedule: Q04DX003 (ip), vehicle: saline with Tween-80) 100 % of control; (dose: 25.0 mg/kg/injection, schedule: Q04DX003 (ip), vehicle: saline with Tween-80) 100 % of control.
As for `O=C1C=C(C2CCCCC2)C(=O)c2ccccc21`, the T/C reads like this: under setting [1], 106 % of control; under setting [7], 101 % of control; under setting [8], 92 % of control; under setting [4], 92 % of control.
Take `COc1ccc([I+]c2ccc(OC)cc2)cc1`: the T/C reads like this: (dose: 0.75 mg/kg/injection, schedule: Q01DX009 (ip), vehicle: saline with Tween-80) 95 % of control; (dose: 1.5 mg/kg/injection, schedule: Q01DX009 (ip), vehicle: saline with Tween-80) 95 % of control; (dose: 3.0 mg/kg/injection, schedule: Q01DX009 (ip), vehicle: saline with Tween-80) 100 % of control.
`O=C(CCBr)N1CCN(C(=O)CCBr)CC1`: the T/C is 100 % of control (dose: 2.5 mg/kg/injection, schedule: Q01DX009 (ip), vehicle: saline with Tween-80); 102 % of control (dose: 5.0 mg/kg/injection, schedule: Q01DX009 (ip), vehicle: saline with Tween-80); 109 % of control (dose: 5.0 mg/kg/injection, schedule: Q01DX009 (ip), vehicle: saline); 104 % of control (dose: 10.0 mg/kg/injection, schedule: Q01DX009 (ip), vehicle: saline with Tween-80); 111 % of control and 117 % of control (dose: 10.0 mg/kg/injection, schedule: Q01DX009 (ip), vehicle: saline); 116 % of control under setting [2]. For the same compound, the T/C was 119 % of control (dose: 20.0 mg/kg/injection, schedule: Q01DX009 (ip), vehicle: saline) and 122 % of control under setting [3].
In the case of `O=C(NCCCCC(NC(=O)c1ccccc1)C(=O)O)OCc1ccccc1` (configuration not stated), the T/C by setting is: under setting [8], 101 % of control; under setting [4], 96 % of control; under setting [5], 95 % of control; under setting [6], 86 % of control.
As for `CC(NC(=O)C(F)(F)F)C(=O)O` (configuration not stated), the T/C by setting is: (dose: 100.0 mg/kg/injection, schedule: Q04DX003 (ip), vehicle: saline) 100 % of control; (dose: 200.0 mg/kg/injection, schedule: Q04DX003 (ip), vehicle: saline) 86 % of control.
With `CC(C)(C)OC(=O)NC(COCc1ccccc1)C(=O)O` (configuration not stated), the T/C was 90 % of control under setting [8] and 90 % of control under setting [4].
Consider `CCOC(=O)c1ccc(Nc2sc(C(=O)c3ccc(Br)cc3)c(N)c2C#N)cc1`, for which the T/C reads like this: under setting [9], 92 % of control; under setting [1], 87 % of control; under setting [7], 88 % of control; under setting [8], 86 % of control.
Take `CCC(C)C(=O)OC1C(=O)OC2CC3C(C)=CC(=O)C(O)C3(C)C3C4(O)OCC23C1C(C)C4O` (configuration not stated): the T/C by setting is: (dose: 1.4 mg/kg/injection, schedule: Q01DX009 (ip), vehicle: saline) 157 % of control; (dose: 2.8 mg/kg/injection, schedule: Q01DX009 (ip), vehicle: saline with Tween-80) 153 % of control.
On to `O=C1CC(=O)C(Br)=C1Br`, for which the T/C (dose: 0.08 mg/kg/injection, schedule: Q01DX009 (ip), vehicle: saline with Tween-80) was 97 % of control; the T/C (dose: 0.15 mg/kg/injection, schedule: Q01DX009 (ip), vehicle: saline with Tween-80) is 93 % of control; the T/C (dose: 0.3 mg/kg/injection, schedule: Q01DX009 (ip), vehicle: saline with Tween-80) was 95 % of control; the T/C (dose: 0.37 mg/kg/injection, schedule: Q04DX003 (ip), vehicle: saline with Tween-80) is 94 % of control; the T/C (dose: 75.0 micrograms/kg/injection, schedule: Q04DX003 (ip), vehicle: saline with Tween-80) is 92 % of control; the T/C (dose: 150.0 micrograms/kg/injection, schedule: Q04DX003 (ip), vehicle: saline with Tween-80) is 92 % of control. For the same compound, the T/C (dose: 300.0 micrograms/kg/injection, schedule: Q04DX003 (ip), vehicle: saline with Tween-80) is 91 % of control.
Turning to `O=c1cc(O)c1=O`, the T/C by setting is: (dose: 0.78 mg/kg/injection, schedule: Q01DX009 (ip), vehicle: saline with Tween-80) 106 % of control; (dose: 1.56 mg/kg/injection, schedule: Q01DX009 (ip), vehicle: saline with Tween-80) 104 % of control; (dose: 3.13 mg/kg/injection, schedule: Q01DX009 (ip), vehicle: saline with Tween-80) 110 % of control; under setting [9], 109 % of control; under setting [1], 93 % of control.
